According to BindingDB's records for doi:10.1021/jm00171a003 (Merck, 1990):
Numbered stars: 1 amine (or outer) side, 2 acyl side, 3 side chain; on linkers, the order of the positions; unused ones are H or OH. Square brackets hold non-standard residues; d marks the D form. Peptide text beside a SMILES is read from it. X6 = CN(C)C[C@H]1C=NN([*:1])[C@H](C(=O)[*:2])C1; X5 = O=C1CC[C@@H](C(=O)[*:2])N([*:1])N1; dPiz(1,6-dehydro) = O=C(O)[C@H]1CCC=NN1; X2 = CN1CCC[C@@H](C(=O)[*:2])N1[*:1]; X1 = CN1CCC[C@H](C(=O)[*:2])N1[*:1]; X7 = O=C([C@@H]1C=CC=NN1[*:1])[*:2]; X3 = O=C([C@H]1CCCNN1[*:1])[*:2]; dNMeF = CN[C@H](Cc1ccccc1)C(=O)O

These compounds were tested against Vasopressin V1a receptor (Rattus norvegicus) (UniProt P30560) (assay: Binding affinity against Vasopressin receptor in rat liver).
Sequence of Vasopressin V1a receptor (Rattus norvegicus) (P30560 whole entry, looked up): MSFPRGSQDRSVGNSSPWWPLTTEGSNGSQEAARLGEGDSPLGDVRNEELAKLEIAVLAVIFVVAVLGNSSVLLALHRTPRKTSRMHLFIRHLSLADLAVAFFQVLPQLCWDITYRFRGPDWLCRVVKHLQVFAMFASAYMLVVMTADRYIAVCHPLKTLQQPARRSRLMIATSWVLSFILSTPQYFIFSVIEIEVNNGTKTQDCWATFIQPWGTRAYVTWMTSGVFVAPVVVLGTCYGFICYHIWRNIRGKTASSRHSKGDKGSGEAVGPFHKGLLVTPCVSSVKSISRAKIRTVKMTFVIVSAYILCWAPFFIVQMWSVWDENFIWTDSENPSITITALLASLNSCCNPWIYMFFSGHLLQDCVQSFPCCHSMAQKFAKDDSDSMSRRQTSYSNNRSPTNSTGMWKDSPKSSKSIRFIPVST

Row | SMILES | Ki [µM]
1 | CC[C@@H](C)[C@@H]1NC(=S)[C@@H](Cc2ccccc2)NC(=O)[C@@H]2CCCN2C(=O)[C@@H](Cc2ccccc2)N(C)C(=O)[C@@H]2CCC=NN2C(=O)[C@H]2CCC=NN2C1=O | 0.14
2 | CC[C@H](C)[C@@H]1NC(=O)[C@@H](Cc2ccccc2)NC(=O)[C@@H]2CCCN2C(=O)[C@@H](Cc2ccccc2)N(C)C(=O)[C@@H]2CCC(=O)NN2C(=O)[C@H]2CCCNN2C1=O (cyclo(I[X3][X5][dNMeF]P[dF])) | 3.9
3 | CC[C@H](C)[C@@H]1NC(=O)[C@@H](Cc2ccccc2)NC(=O)[C@@H]2CCCN2C(=O)[C@@H](Cc2ccccc2)N(C)C(=O)[C@@H]2CCC(=O)NN2C(=O)[C@H]2CCC=NN2C1=O (cyclo(I[dPiz(1,6-dehydro)][X5][dNMeF]P[dF])) | 1.6

Molecular target: Vasopressin V1a receptor (Rattus norvegicus) (UniProt P30560)
Test: as above
Remark: another data set of the same source

Row | SMILES | Ki [µM]
4 | CC[C@H](C)[C@H]1C(=O)N2NCCC[C@@H]2C(=O)N2NCCC[C@H]2C(=O)N(C)[C@H](Cc2ccccc2)C(=O)N2CCC[C@H]2C(=O)N[C@H](Cc2ccccc2)C(=O)N1O | 2.2
5 | CC[C@H](C)[C@@H]1NC[C@@H](Cc2ccccc2)NC(=O)[C@@H]2CCCN2C(=O)[C@@H](Cc2ccccc2)N(C)C(=O)[C@@H]2CCC=NN2C(=O)[C@H]2CCC=NN2C1=O | > 30
6 | CC[C@H](C)[C@@H]1NC(=O)[C@@H](Cc2ccccc2)NC(=O)[C@@H]2CCCN2C(=O)[C@@H](Cc2ccccc2)N(C)C(=O)[C@@H]2CCCN(C)N2C(=O)[C@H]2CCCN(C)N2C1=O (cyclo(I[X1][X2][dNMeF]P[dF])) | 7.4
7 | CC[C@H](C)[C@@H]1NC(=O)[C@@H](Cc2ccccc2)NC(=O)[C@@H]2CCCN2C(=O)[C@@H](Cc2ccccc2)N(C)C(=O)[C@@H]2C[C@@H](CN(C)C)C=NN2C(=O)[C@H]2CCC=NN2C1=O (cyclo(I[dPiz(1,6-dehydro)][X6][dNMeF]P[dF])) | 0.55
8 | CC[C@H](C)[C@@H]1NC(=O)[C@@H](Cc2ccccc2)NC(=O)[C@@H]2CCCN2C(=O)[C@@H](Cc2ccccc2)N(C)C(=O)[C@@H]2C=CC=NN2C(=O)[C@H]2CCC=NN2C1=O (cyclo(I[dPiz(1,6-dehydro)][X7][dNMeF]P[dF])) | 0.39
